Converted amounts (≈) assume the structure as drawn. Where two headings read alike, the source gives them in different places. Marks after values point to notes of the source that are not given here.
Assays:
[1] = tested on: Bacillus mycoides; experiment: microbe, parasite or virus in culture; format: cell-based
[2] = tested on: Bacillus mycoides; experiment: microbe, parasite or virus in culture; format: cell-based; remark: listed apart in the source
[3] = tested on: Candida albicans; experiment: MIC by serial dilution (agar wells), C. albicans; format: cell-based
[4] = tested on: normal skin fibroblast cell line (BJ1); experiment: cells; format: cell-based; settings: Homo sapiens, Skin fibroblast, MTT, 48 h
[5] = in vitro; format: cell-based; settings: human, BJ1 normal skin fibroblast cells, 100 μg/mL
[6] = tested on: osteosarcoma cell line (HOS); experiment: cells; format: cell-based; settings: Homo sapiens, 48 h
[7] = tested on: hepatocellular carcinoma cell line (HePG2); experiment: cells; format: cell-based; settings: Homo sapiens, 48 h
[8] = tested on: TP53; experiment: qRT-PCR, TP53 in HCT116 cells; format: cell-based, human; settings: versus negative samples
Protocol: RNA was extracted from pancreas, prostate, lung and liver cell lines using a total RNA purification kit (Qiagen, Hilden, Germany) according to the manufacturer's instructions. An aliquot of RNA was diluted in RNase-free water to estimate RNA quantity. Aliquots were used immediately for reverse transcription (RT). cDNA synthesis was performed on extracted RNA, which was treated with DNase (Invitrogen, Germany) to remove any possible DNA contamination. The DNase-treated RNA was reverse transcribed into first-strand cDNA using the RevertAid First Strand cDNA Synthesis kit (Fermantas) according to the manufacturer's instructions. Determination of the pancreas, prostate, lung and liver cell line cDNA copy number was carried out using StepOne™ Real-Time PCR System from Applied Biosystems (Thermo Fisher Scientific, Waltham, MA USA). Gene expressions were detected by real-time PCR, which was performed using the Rotor-Gene Q system (Qiagen Company). A 25 µL reaction mixture consisted of 12.5 µL SYBR® Premix Ex TaqTM (TaKaRa, Biotech. Co. Ltd.), 0.5 µL of each primer (10 PMole) (Table 1), 1 µL cDNA (50 ng) and 10.5 µL RNase free water. The optimum amplification conditions were chosen empirically according to each tested gene. Generally, the amplification conditions include initial incubation (95.0 °C for 3 min), then 40 cycles of amplification with denaturation (95.0 °C for 15 s), annealing (55.0 °C for 30 s) and extension (72.0 °C for 30 s) steps then 71 cycles which started at 60.0 °C and then increased about 0.5 °C every 10 s up to 95.0 °C. Mean cycle threshold (Ct) values of triplicate samples are used for analysis. The Ct value indicates the fractional cycle number at which the amount of amplified target reaches a fixed threshold. Data from real-time PCR were analyzed using 2^−∆∆Ct method[38]–[40]. Data were represented as the fold change in target gene expression normalized to a House-Keeping gene (HKG) and relative to the control. β-actin was used as a HKG to normalize input RNA amount, RNA quality and reverse transcription efficiency.

[9] = tested on: HCT116; experiment: DNA damage, comet assay, HCT116; format: cell-based, human
[10] = tested on: HCT116; experiment: DNA fragmentation assay, HCT116; format: cell-based, human
[11] = tested on: skin cancer (A431); experiment: cells; format: cell-based; settings: Homo sapiens, 48 h
[12] = tested on: FASN; experiment: qRT-PCR, FASN in HCT116 cells; format: cell-based, human; settings: versus negative samples
[13] = tested on: Candida albicans; experiment: Agar well diffusion, C. albicans; format: cell-based
[14] = tested on: colon cancer (HCT116); experiment: cells; format: cell-based; settings: Homo sapiens
[15] = tested on: Escherichia coli; experiment: Agar well diffusion, E. coli; format: cell-based; settings: Escherichia coli, read-out: Inhibition zones diameter
[16] = tested on: Escherichia coli; experiment: MIC by serial dilution (agar wells), E. coli; format: cell-based
[17] = read-out: Minimum inhibition concentration (MIC)
[18] = 0.00488 mg/mL, 150 µL in DMSO, 15 mm agar well
[19] = 0.00975 mg/mL, 150 µL in DMSO, 15 mm agar well
[20] = 0.0195 mg/mL, 150 µL in DMSO, 15 mm agar well
[21] = 0.0391 mg/mL, 150 µL in DMSO, 15 mm agar well
[22] = 0.0781 mg/mL, 150 µL in DMSO, 15 mm agar well
[23] = 0.1563 mg/mL, 150 µL in DMSO, 15 mm agar well
[24] = 0.3125 mg/mL, 150 µL in DMSO, 15 mm agar well
[25] = 0.625 mg/mL, 150 µL in DMSO, 15 mm agar well
[26] = 1.25 mg/mL, 150 µL in DMSO, 15 mm agar well
[27] = 2.50 mg/mL, 150 µL in DMSO, 15 mm agar well
[28] = 5.00 mg/mL, 150 µL in DMSO, 15 mm agar well
[29] = 10.0 mg/mL, 150 µL in DMSO, 15 mm agar well

Cc1ccc(S(=O)(=O)NC(=O)Nc2cc(C(F)(F)F)cc(C(F)(F)F)c2)cc1 [Compound 9, N-[(3,5-bis{Trifluoromethyl}phenyl)carbamoyl]-4-methylbenzenesulfonamide]
Inhibition zones diameter ([1]; B. mycoides, 200 μL of 10 mg/mL in DMSO in 15 mm holes, overnight 37 °C): 41 ± 0.0 mm | zone of inhibition at 10000 µg/mL ([1]; Bacillus mycoides, read-out: Inhibition zones diameter): 41 mm | zone of inhibition at 4.88 µg/mL ([2]; read-out: Inhibition zone): 0 mm | zone of inhibition at 9.75 µg/mL ([2]; read-out: Inhibition zone): 0 mm | zone of inhibition at 19.5 µg/mL ([2]; read-out: Inhibition zone): 16 mm | zone of inhibition at 39.1 µg/mL ([2]; read-out: Inhibition zone): 17 mm | zone of inhibition at 78.1 µg/mL ([2]; read-out: Inhibition zone): 21 mm | zone of inhibition at 156.3 µg/mL ([2]; read-out: Inhibition zone): 25 mm | zone of inhibition at 312.5 µg/mL ([2]; read-out: Inhibition zone): 28 mm | zone of inhibition at 625 µg/mL ([2]; read-out: Inhibition zone): 29 mm | zone of inhibition at 1250 µg/mL ([2]; read-out: Inhibition zone): 30 mm | zone of inhibition at 2500 µg/mL ([2]; read-out: Inhibition zone): 32 mm | zone of inhibition at 5000 µg/mL ([2]; read-out: Inhibition zone): 33 mm | zone of inhibition at 10000 µg/mL ([2]; read-out: Inhibition zone): 33 mm | MIC [2, 17]: 19.5 µg/mL (≈ 45.7 µM) | zone of inhibition at 4.88 µg/mL [3, 18]: 0 mm | zone of inhibition at 9.75 µg/mL [3, 19]: 0 mm | zone of inhibition at 19.5 µg/mL [3, 20]: 0 mm | zone of inhibition at 39.1 µg/mL [3, 21]: 16 mm | zone of inhibition at 78.1 µg/mL [3, 22]: 20 mm | zone of inhibition at 156.3 µg/mL [3, 23]: 23 mm | zone of inhibition at 312.5 µg/mL [3, 24]: 25 mm | zone of inhibition at 625 µg/mL [3, 25]: 28 mm | zone of inhibition at 1250 µg/mL [3, 26]: 32 mm | zone of inhibition at 2500 µg/mL [3, 27]: 34 mm | zone of inhibition at 5000 µg/mL [3, 28]: 35 mm | zone of inhibition at 10000 µg/mL [3, 29]: 36 mm | MIC [3, 17]: 39.1 µg/mL (≈ 91.7 µM) | IC50 [4]: 52.5 ± 0.74 µM | mortality at 48 h, 100 µg/mL [5]: 28 ± 0.61% | mortality at 100 µg/mL ([6]; 100 μg/mL): 100% | IC50 ([6]; MTT): 17.6 ± 0.24 µM | mortality at 100 µg/mL ([7]; 100 μg/mL): 100% | IC50 ([7]; MTT): 12.4 ± 0.17 µM | TP53 gene expression level [8]: suppression | DNA damaged cells % (mean ± SEM) [9]: 19.75 ± 1.25^b % | Class 0 (no tail), number of cells ([9]; of 400 cells analyzed): 321 | Class 1 (tail length < diameter of nucleus), number of cells ([9]; of 400 cells analyzed): 37 | Class 2 (tail length between 1 and 2 × the diameter of nucleus), number of cells ([9]; of 400 cells analyzed): 24 | Class 3 (tail length > 2 × the diameter of nucleus), number of cells ([9]; of 400 cells analyzed): 18 | No. of cells, Comets ([9]; of 400 cells analyzed): 79 | Change (DNA fragmentation versus untreated cells) [10]: 18.10 | DNA fragmentation % M ± SEM ([10]; IC50 concentration, 24 h): 29.0 ± 0.54^a % | Inhibition ([10]; doxorubicin = 0.00): -13.81 | mortality at 100 µg/mL ([11]; A-431, 100 μg/mL): 100% | IC50 ([11]; A-431, MTT): 113.3 ± 0.68 µM | FASN gene expression level [12]: suppression | Inhibition zones diameter ([13]; C. albicans, 200 μL of 10 mg/mL in DMSO in 15 mm holes, overnight 37 °C): 41 ± 0.21 mm | zone of inhibition at 10000 µg/mL ([13]; Candida albicans, read-out: Inhibition zones diameter): 41 mm | mortality at 100 µg/mL ([14]; HCT-116, 48 h, 100 μg/mL): 100% | IC50 ([14]; HCT-116, MTT, 48 h): 17.8 ± 0.35 µM | zone of inhibition at 10000 µg/mL [15]: 37 ± 0.74 mm | zone of inhibition at 4.88 µg/mL [16, 18]: 0 mm | zone of inhibition at 9.75 µg/mL [16, 19]: 0 mm | zone of inhibition at 19.5 µg/mL [16, 20]: 0 mm | zone of inhibition at 39.1 µg/mL [16, 21]: 0 mm | zone of inhibition at 78.1 µg/mL [16, 22]: 16 mm | zone of inhibition at 156.3 µg/mL [16, 23]: 20 mm | zone of inhibition at 312.5 µg/mL [16, 24]: 25 mm | zone of inhibition at 625 µg/mL [16, 25]: 30 mm | zone of inhibition at 1250 µg/mL [16, 26]: 32 mm | zone of inhibition at 2500 µg/mL [16, 27]: 33 mm | zone of inhibition at 5000 µg/mL [16, 28]: 34 mm | zone of inhibition at 10000 µg/mL [16, 29]: 35 mm | MIC [16, 17]: 78.1 µg/mL (≈ 183 µM)

— article PMC10579241, “Impact of trifluoromethyl and sulfonyl groups on the biological activity of novel aryl-urea derivatives: synthesis, in-vitro, in-silico and SAR studies” (Scientific Reports, 2023)
